Measured values reported in ChEMBL document CHEMBL4825684, “Design, synthesis and biological evaluation of N-anthraniloyl tryptamine derivatives as pleiotropic molecules for the therapy of malignant glioma” (Eur J Med Chem, 2021).
Calls of active or inactive are those of the source. The rule behind the calls is not given here.

Experiments:
[1] = test system: U-87 MG; assay: Anti-invasion activity against human U-87 MG cells assessed as inhibition of invasion incubated for 24 hrs by matrigel trans well plate assay; type: functional, cell-based; conditions: U-87MG ATCC
[2] = test system: U-87 MG; assay: Cell cycle arrest in human U-87 MG cells assessed as accumulation at G2/M phase at 8 uM incubated for 48 hrs by PI staining based flow cytometry assay (reference value: 8%); type: functional, U-87MG ATCC
[3] = test system: U-251; assay: Induction of apoptosis in human U-251 cells assessed as viable cells at 2 uM incubated for 48 hrs by […] double staining based flow cytometry assay (reference value: 96.6%); type: functional; conditions: read-out: Activity
[4] = AUC (0 to t) in Sprague-Dawley rat at 60 mg/kg, ip measured up to 24 hrs by LC-MS analysis; type: ADME, organism-based; set-up: route intraperitoneal, dose 60 mg/kg, time <=24; conditions: in vivo
[5] = test system: C6; assay: Antitumor activity against rat C6 cells inoculated orthotopic Sprague-Dawley rat model assessed as increase in E-cadherin in tumor tissue at 50 mg/kg, ip twice a day treated 3 days after tumor cell injection measured for 13 days after tumor implantation by Western blot analysis; type: functional, organism-based; conditions: time 3.0 day
[6] = test system: U-251; assay: Antiproliferative activity against human U-251 cells assessed as decrease in proliferation at 4 uM measured after 24 hrs by EdU assay relative to control; type: functional, cell-based
[7] = test system: C6; assay: Antitumor activity against rat C6 cells inoculated orthotopic Sprague-Dawley rat model assessed as inhibition of angiogenesis brain tissue at 50 mg/kg, ip twice a day administered for 13 days of tumor implantation; type: functional, organism-based; conditions: time 13.0 day
[8] = Drug uptake in Sprague-Dawley rat cerebrospinal fluid at 60 mg/kg, ip measured after 2 hrs by LC-MS analysis; type: ADME, organism-based; conditions: read-out: Drug uptake
[9] = test system: U-251; assay: Antiproliferative activity against human U-251 cells assessed as colony formation ratio at 4 uM measured after 24 hrs by plate clone formation assay relative to control; type: functional
[10] = Toxicity in rat C6 cells inoculated orthotopic Sprague-Dawley rat model assessed as changes in blood at 50 mg/kg, ip twice a day administered for 13 days of tumor implantation by routine blood test; type: organism-based; conditions: in vivo, 312 h, time 13 day
[11] = test system: C6; assay: Antitumor activity against rat C6 cells inoculated orthotopic Sprague-Dawley rat model assessed as decrease in p-STAT3 in tumor tissue at 50 mg/kg, ip twice a day treated 3 days after tumor cell injection measured for 13 days after tumor implantation by Western blot analysis; type: functional, organism-based; conditions: time 3.0 day
[12] = molecular target: Tyrosine-protein kinase JAK2 (Homo sapiens) (UniProt O60674); assay: Inhibition JAK2 phosphorylation in human U-87 MG cells incubated up to 8 hrs by Western blot analysis; type: cell-based; conditions: time hrs <=8
Chain of Tyrosine-protein kinase JAK2 (Homo sapiens) (O60674 whole entry): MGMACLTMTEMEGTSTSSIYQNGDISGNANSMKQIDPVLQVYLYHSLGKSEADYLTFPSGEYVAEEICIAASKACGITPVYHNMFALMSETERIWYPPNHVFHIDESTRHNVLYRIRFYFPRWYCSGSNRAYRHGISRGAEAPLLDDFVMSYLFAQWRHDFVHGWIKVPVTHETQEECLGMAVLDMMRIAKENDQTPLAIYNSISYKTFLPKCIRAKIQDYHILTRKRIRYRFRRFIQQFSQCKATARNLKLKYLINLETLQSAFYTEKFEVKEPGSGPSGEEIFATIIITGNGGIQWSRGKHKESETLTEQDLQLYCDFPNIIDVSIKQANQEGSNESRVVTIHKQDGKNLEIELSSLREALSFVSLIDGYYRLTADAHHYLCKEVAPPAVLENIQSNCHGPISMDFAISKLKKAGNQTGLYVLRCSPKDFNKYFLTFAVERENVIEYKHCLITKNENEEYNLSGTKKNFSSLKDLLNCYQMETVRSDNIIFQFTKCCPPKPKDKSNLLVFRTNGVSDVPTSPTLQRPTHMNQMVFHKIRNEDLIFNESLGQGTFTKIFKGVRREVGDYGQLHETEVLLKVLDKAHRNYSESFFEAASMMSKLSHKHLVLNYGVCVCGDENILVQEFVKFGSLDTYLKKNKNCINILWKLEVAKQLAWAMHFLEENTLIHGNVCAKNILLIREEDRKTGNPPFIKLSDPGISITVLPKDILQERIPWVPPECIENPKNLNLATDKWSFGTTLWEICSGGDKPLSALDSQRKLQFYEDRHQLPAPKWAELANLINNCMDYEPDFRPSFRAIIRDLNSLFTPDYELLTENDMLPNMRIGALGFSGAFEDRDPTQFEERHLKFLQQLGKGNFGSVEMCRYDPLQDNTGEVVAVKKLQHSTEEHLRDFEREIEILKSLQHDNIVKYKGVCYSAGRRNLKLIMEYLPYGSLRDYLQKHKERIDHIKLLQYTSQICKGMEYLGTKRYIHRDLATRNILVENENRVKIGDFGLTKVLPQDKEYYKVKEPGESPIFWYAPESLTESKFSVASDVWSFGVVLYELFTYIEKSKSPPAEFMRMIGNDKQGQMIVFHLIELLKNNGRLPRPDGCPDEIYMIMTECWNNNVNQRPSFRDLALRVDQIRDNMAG

[13] = test system: U-251; assay: Induction of apoptosis in human U-251 cells assessed as late apoptotic cells at 4 uM incubated for 48 hrs by […] double staining based flow cytometry assay (reference value: 1.39%); type: functional
[14] = test system: U-87 MG; assay: Induction of apoptosis in human U-87 MG cells assessed as late apoptotic cells at 8 uM incubated for 48 hrs by […] double staining based flow cytometry assay (reference value: 0.61%); type: functional, U-87MG ATCC
[15] = test system: U-251; assay: Induction of apoptosis in human U-251 cells assessed as decrease in Bcl2/Bax ratio at 2 to 4 uM incubated for 48 hrs by Western blot analysis relative to control; type: functional, cell-based; conditions: dose 2-4 µM
[16] = test system: U-87 MG; assay: Induction of apoptosis in human U-87 MG cells assessed as late apoptotic cells at 4 uM incubated for 48 hrs by […] double staining based flow cytometry assay (reference value: 0.61%); type: functional, U-87MG ATCC
[17] = test system: U-87 MG; assay: Induction of apoptosis in human U-87 MG cells assessed as decrease in Bcl2/Bax ratio at 2 to 4 uM incubated for 48 hrs by Western blot analysis relative to control; type: functional, cell-based; conditions: U-87MG ATCC, dose 2-4 µM
[18] = test system: U-251; assay: Antimigratory activity against human U-251 cells assessed as inhibition of migration incubated for 24 hrs by matrigel trans well plate assay; type: functional, cell-based; conditions: dose 1-4 µM
[19] = molecular target: Signal transducer and activator of transcription 3 (Homo sapiens) (UniProt P40763); assay: Inhibition of STAT3 nuclear translocation in human U251 cells incubated for 24 hrs by Hoechst staining based fluorescence confocal imaging analysis; type: cell-based; conditions: U-251
Chain of Signal transducer and activator of transcription 3 (Homo sapiens) (P40763 whole entry): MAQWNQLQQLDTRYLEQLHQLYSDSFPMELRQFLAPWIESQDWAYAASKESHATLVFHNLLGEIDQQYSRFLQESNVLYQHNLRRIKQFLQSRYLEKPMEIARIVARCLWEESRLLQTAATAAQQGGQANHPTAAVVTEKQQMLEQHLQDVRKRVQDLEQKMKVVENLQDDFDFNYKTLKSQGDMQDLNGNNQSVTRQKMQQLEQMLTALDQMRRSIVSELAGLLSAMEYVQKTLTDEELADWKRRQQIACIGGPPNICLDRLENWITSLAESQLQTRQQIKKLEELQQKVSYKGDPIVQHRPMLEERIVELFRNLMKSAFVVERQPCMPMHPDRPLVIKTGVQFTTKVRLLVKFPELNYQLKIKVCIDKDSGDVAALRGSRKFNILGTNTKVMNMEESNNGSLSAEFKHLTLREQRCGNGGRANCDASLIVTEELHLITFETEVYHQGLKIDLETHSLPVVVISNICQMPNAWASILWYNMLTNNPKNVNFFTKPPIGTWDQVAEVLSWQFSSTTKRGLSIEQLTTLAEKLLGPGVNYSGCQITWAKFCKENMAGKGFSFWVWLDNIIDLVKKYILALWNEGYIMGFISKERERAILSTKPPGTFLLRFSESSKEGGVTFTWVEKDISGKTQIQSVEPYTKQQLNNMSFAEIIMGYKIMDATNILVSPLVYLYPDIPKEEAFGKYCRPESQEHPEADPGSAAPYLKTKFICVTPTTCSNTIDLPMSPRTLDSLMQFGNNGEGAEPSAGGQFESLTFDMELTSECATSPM

[20] = test system: U-251; assay: Induction of apoptosis in human U-251 cells assessed as early apoptotic cells at 2 uM incubated for 48 hrs by […] double staining based flow cytometry assay (reference value: 0.73%); type: functional
[21] = test system: U-87 MG; assay: Induction of apoptosis in human U-87 MG cells assessed as increase in ROS generation at 1 to 4 uM incubated for 48 hrs by Western blot analysis relative to control; type: functional, cell-based; conditions: U-87MG ATCC, dose 1-4 µM
[22] = test system: U-87 MG; assay: Induction of apoptosis in human U-87 MG cells assessed as increase in cytochrome c release at 1 to 4 uM incubated for 48 hrs by Western blot analysis relative to control; type: functional, cell-based; conditions: U-87MG ATCC, dose 1-4 µM

With COc1cc(Nc2ccccc2C(=O)NCCc2c[nH]c3ccccc23)cc(OC)c1OC the Activity [1] was “Active”, the Activity [2] was 68.2% and the viability at 2 µM [3] was 73.4%. For the same molecule, the AUC(0-t) at 24 h [4] was 7330 ng·h/mL, the Activity [5] was “Active” and the Activity [6] was “Active”. For the same molecule, the Activity [7] was “Active”, the concentration at 2 h [8] was 200 ng/mL and the Activity [9] was 5.33%. For the same molecule, the Activity [10] was “Non-Toxic”, the Activity [11] was “Active” and the inhibition [12] was “Active”. The Activity [13] was 21.8%, the Activity [14] was 7.44% and the Activity [15] was “Active”. For the same molecule, the Activity [16] was 3.78%, the Activity [17] was “Active” and the Activity [18] was “Active”. The inhibition [19] was “Active”, the Activity [20] was 4.93% and the Activity [21] was “Active”. For the same molecule, the Activity [22] was “Active”.
